{"source": "patent US20150272939A1", "about": "“Identification of Small Molecule Inhibitors of Jumonji AT-Rich Interactive Domain 1A (JARID1A) and 1B (JARID1B) Histone Demethylase” (Yale University, priority 2012, published 2015)", "key": {"JARID1A": {"target": "T1, JARID1A (Homo sapiens, UniProt P29375)", "T1 construct": "the high-throughput screen of the invention utilizes full length JARID1A or JARID1B; FLAG (N); made in house; host or cells: Sf21 insect cells (baculovirus)", "T1 sequence (P29375 whole entry)": "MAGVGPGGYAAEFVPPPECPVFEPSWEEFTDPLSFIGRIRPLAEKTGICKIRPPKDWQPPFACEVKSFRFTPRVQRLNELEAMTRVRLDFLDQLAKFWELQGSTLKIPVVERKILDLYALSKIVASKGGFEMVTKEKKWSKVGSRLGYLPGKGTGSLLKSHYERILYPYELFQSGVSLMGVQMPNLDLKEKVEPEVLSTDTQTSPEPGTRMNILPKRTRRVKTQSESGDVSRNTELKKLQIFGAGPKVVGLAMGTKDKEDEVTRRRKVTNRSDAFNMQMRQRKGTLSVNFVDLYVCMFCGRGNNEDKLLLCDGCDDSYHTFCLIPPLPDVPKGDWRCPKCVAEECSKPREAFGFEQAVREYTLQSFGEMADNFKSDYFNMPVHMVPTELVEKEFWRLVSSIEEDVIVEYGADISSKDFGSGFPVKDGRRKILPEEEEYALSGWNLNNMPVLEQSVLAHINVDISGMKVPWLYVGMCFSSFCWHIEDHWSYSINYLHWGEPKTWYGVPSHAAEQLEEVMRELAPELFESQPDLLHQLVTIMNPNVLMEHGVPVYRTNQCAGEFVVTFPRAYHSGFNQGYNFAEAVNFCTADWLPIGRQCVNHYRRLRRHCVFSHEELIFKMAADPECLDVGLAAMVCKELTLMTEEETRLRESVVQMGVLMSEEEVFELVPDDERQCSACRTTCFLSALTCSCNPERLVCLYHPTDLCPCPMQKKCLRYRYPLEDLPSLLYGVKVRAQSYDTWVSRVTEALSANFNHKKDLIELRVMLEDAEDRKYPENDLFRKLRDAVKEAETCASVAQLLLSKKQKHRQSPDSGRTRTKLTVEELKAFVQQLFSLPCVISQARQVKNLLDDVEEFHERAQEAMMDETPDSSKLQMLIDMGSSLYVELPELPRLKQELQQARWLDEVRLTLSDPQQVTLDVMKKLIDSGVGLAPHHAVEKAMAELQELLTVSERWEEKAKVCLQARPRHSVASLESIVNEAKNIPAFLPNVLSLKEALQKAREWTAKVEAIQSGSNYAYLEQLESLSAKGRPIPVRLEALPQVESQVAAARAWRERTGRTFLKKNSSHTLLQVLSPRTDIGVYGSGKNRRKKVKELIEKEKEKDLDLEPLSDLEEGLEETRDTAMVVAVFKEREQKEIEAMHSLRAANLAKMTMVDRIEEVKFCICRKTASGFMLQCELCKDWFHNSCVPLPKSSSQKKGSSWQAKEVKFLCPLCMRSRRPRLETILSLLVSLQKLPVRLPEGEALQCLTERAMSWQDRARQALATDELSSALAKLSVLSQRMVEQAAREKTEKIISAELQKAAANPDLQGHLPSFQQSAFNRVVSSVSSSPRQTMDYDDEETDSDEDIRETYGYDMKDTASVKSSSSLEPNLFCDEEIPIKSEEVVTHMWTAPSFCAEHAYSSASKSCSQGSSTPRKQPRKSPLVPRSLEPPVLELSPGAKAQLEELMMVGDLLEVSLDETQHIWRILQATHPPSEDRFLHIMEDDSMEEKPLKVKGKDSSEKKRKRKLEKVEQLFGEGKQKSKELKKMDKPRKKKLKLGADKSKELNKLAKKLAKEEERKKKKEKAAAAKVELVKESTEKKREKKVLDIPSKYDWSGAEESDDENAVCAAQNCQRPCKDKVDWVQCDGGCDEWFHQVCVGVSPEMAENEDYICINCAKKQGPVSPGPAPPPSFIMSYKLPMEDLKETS", "assay": "FLAG-JARID1A histone demethylase assay with AlphaScreen detection (HTS and dose response)", "type": "biochemical", "protocol": "(§1) Histone demethylase assays were performed in 384 well white plates (Corning 3574). Demethylase buffer conditions for FLAG-JARID1B were as follows: 10 μM α-KG, 100 μM ascorbate, 50 μM (NH4)2Fe(SO4)2, 50 mM Hepes (pH 7.5), 0.01% (v/v) Tween 20, and 0.1% (w/v) bovine serum albumin. The demethylase reactions included 64 nM bio-H3K4me3 peptide alone or in the presence of 4 nM FLAG-JARID1B enzyme in a 10 μl reaction at 25° C. for 30 minutes. As a positive control, 64 nM bio-H3K4me2 peptide was assayed in the absence of enzyme. Assay conditions for FLAG-JARID1C is the same as for FLAG-JARID1B except that 20 nM enzyme was used. For FLAG-JARID1A, the demethylase buffer was similar to FLAG-JARID1B, except that 125 μM α-KG and 13 nM FLAG-JARID1A enzyme were used. The His-FLAG-UTX and FLAG-JMJD3 demethylase assays also employed the same buffer conditions as for FLAG-JARID1B, with 64 nM bio-H3K27me3 peptide assayed with or without 25 nM His-FLAG-UTX enzyme or 50 nM FLAG-JMJD3 (BPS Bioscience, 50115), and 64 nM bio-H3K27me2 peptide as a positive control. JARID1A, JARID1C, UTX, and JMJD3 histone demethylase assays proceeded at 37° C. for 1 hour.\n(§2) The AlphaScreen General IgG (Protein A) detection kit was obtained from PerkinElmer. Demethylated H3K4 products were detected using AlphaScreen antibody/bead mix containing 7.5 mM ethylenediaminetetraacetic acid (EDTA) and 0.15 μg/ml anti-H3K4me1 antibody in a final volume of 20 μl. For detection of demethylated H3K27 products, the AlphaScreen antibody/bead mix containing 7.5 mM EDTA and 0.15 μg/ml anti-H3K27me2 antibody in a final volume of 20 μl. The luminescence signal was measured using the Envision (PerkinElmer) or Pherastar (BMG Labtech) Platereaders.\nFLAG-JARID1A was screened against 9,600 compounds. These compound libraries were from the Yale Center for Molecular Discovery. The libraries screened include the MicroSource Gen-Plus, MicroSource Pure Natural Products, NIH Clinical Collection, Enzo Epigenetics, and ChemBridge MW-Set libraries. Compounds dissolved in dimethyl sulfoxide (DMSO) were pintooled into a 384 well plate containing bio-H3K4me3 peptide in demethylase buffer to a final concentration of 20 μM. The reactions were initiated by the addition of 13 nM FLAG-JARID1A, and detected as described above. To eliminate the false positive hits, a counterscreen was performed against bio-H3K4me2 in the absence of enzyme."}, "JMJD3": {"target": "T2, JMJD3 (Homo sapiens, UniProt O15054)", "T2 construct": "FLAG (N); purchased BPS Bioscience 50115", "T2 sequence (O15054 1-1682 isoform O15054-1)": "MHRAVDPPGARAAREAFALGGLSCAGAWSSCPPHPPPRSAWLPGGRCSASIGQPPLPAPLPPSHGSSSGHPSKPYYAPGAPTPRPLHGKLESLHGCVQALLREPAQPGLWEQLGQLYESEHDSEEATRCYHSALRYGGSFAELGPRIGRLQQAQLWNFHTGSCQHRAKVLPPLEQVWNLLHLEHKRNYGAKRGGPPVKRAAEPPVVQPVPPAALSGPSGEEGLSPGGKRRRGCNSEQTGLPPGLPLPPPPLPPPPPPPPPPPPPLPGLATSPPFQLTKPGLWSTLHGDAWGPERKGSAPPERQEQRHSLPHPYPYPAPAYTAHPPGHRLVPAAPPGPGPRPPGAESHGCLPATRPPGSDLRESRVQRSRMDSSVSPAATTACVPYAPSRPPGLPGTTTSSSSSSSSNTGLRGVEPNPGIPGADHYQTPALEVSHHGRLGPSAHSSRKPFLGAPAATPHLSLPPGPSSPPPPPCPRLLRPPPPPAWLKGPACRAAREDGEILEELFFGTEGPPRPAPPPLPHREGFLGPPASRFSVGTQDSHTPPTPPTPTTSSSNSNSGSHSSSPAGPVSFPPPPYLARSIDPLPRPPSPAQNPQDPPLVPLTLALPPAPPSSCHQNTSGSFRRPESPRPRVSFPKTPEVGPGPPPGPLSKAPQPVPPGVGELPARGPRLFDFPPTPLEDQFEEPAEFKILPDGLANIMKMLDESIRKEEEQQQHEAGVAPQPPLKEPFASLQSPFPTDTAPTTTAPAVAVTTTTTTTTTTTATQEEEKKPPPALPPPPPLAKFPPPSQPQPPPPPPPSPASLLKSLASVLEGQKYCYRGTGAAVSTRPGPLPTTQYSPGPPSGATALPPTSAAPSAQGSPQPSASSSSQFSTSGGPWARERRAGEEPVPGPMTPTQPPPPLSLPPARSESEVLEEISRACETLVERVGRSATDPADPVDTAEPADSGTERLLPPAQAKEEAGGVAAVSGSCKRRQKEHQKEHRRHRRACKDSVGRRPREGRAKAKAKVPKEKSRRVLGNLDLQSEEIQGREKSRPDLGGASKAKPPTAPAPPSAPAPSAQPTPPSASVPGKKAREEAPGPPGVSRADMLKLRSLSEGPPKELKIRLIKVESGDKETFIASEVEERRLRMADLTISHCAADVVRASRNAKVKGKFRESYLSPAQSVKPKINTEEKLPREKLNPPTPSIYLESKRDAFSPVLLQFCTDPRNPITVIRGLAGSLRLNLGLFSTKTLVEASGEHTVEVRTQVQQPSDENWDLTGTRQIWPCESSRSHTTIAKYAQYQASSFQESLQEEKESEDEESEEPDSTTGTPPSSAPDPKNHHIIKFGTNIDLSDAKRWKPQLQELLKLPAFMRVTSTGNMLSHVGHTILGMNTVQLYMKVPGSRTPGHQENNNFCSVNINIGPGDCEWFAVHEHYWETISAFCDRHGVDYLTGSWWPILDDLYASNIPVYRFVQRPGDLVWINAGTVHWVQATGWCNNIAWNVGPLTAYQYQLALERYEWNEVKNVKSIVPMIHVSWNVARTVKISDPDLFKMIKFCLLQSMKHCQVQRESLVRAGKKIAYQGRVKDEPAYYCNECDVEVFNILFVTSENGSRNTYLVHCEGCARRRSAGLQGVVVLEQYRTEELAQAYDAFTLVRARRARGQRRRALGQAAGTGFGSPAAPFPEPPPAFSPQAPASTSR", "assay": "FLAG-JMJD3 H3K27me3 demethylase assay with AlphaScreen detection", "type": "biochemical", "conditions": "compound 10 μM, 64 nM bio-H3K27me3 peptide", "protocol": "as §1, with “The His-FLAG-UTX and FLAG-JMJD3 demethylase assays also employed the same buffer conditions as for FLAG-JARID1B, with 64 nM bio-H3K27me3 peptide assayed with or without 25 nM His-FLAG-UTX enzyme or 50 nM FLAG-JMJD3 (BPS Bioscience, 50115), and 64 nM bio-H3K27me2 peptide as a positive control. JARID1A, JARID1C, UTX, and JMJD3 histone demethylase assays proceeded at 37° C. for 1 hour.” left out\nas §2, with “For detection of demethylated H3K27 products, the AlphaScreen antibody/bead mix containing 7.5 mM EDTA and 0.15 μg/ml anti-H3K27me2 antibody in a final volume of 20 μl.” left out"}, "[1]": {"test_system": "HeLa cells overexpressing full-length JARID1B", "assay": "H3K4me3 immunofluorescence in cells overexpressing 3xHA-JARID1B", "type": "cell-based", "conditions": "10 μM or 30 μM, 24 hours", "protocol": "pcDNA3.1(−)-3×HA-JARID1B construct was generated by inserting 3×HA-JARID1B between BamHI and XbaI of pcDNA3.1(−) vector. MCF7 cells were plated on 12 mm circle coverslips in 24-well plates and transfected with pcDNA3.1(−)-3×HA-JARID1B in the presence of 0, 10 or 30 μM PBIT. After incubation for 24 hours, the cells were fixed, permeabilized, and stained with antibodies against HA and H3K4me3 for 2 hours. The coverslips were then incubated with anti-mouse Alexa-546 (Invitrogen, A-11003) and goat anti-rabbit Envision (Dako, K4002) for 1 hour. Cy5-Tyramide (Perkin Elmer, NEL775001KT) and 4,6-diamidino-2-phenylindole dihydrochloride (DAPI) (Biotium, 40011) were used to visualize 3×HA-tagged JARID1B and nuclei, respectively. The slides were sealed and analyzed under an Olympus fluorescence microscope.\nTo determine whether JARID1B could be inhibited by PBIT in cells, HeLa cells overexpressing full-length JARID1B were treated with 10 μM or 30 μM PBIT. As expected, in JARID1B transfected cells, the levels of H3K4me3 decreased dramatically compared with untransfected cells (FIG. 5)."}, "MCF7 cells [2]": {"test_system": "MCF7 cells", "assay": "Histone extraction and western blot of H3K4 methylation", "type": "cell-based, human", "conditions": "10 μM, 72 hours, histone extracts", "protocol": "MCF7 cells treated with PBIT (10 μM) or DMSO (0.1%) for 72 hours were harvested and lysed with PBS containing 0.5% Triton X-100. Nuclei were spun down by centrifugation at 6,500×g for 10 minutes, and the pellets were re-suspended in 0.2 N HCl. The histones were extracted overnight, and cellular debris was removed by centrifugation. The samples were loaded onto 16% SDS-PAGE gels and probed with antibodies against H3K4me3, H3K4me2, H3K4me1 and H3.\nTo determine whether PBIT affects H3K4 methylation globally in vivo, H3K4 methylation levels were analyzed in histone extracts prepared from MCF7 cells after exposure to PBIT."}, "MCF10A cells": {"test_system": "MCF10A cells", "assay": "WST-1 cell proliferation assay", "type": "cell-based, human", "conditions": "10 μM, 72 hrs", "protocol": "(§3) The colorimetric assay (WST-1 reagent) from Roche (11644807001) was performed in 96 well white clear bottom plates (Costar, 3610). 1,000 cells were seeded per well (in quadruplicate) overnight, and PBIT was added to the cells to the indicated concentration for 72 hrs. 0.01% DMSO was included as the control. The WST-1 reagent was added (5 μl per well) for 4 hrs, and OD 440 nm absorbance (which reflects the number of viable cells) was measured with the BioTek Synergy Mx Platereader."}, "MCF7 cells [3]": {"test_system": "MCF7 cells", "assay": "WST-1 cell proliferation assay", "type": "cell-based, human", "conditions": "10 μM, 72 hrs", "protocol": "as §3"}, "UACC-812 cells": {"test_system": "UACC-812 cells", "assay": "WST-1 cell proliferation assay", "type": "cell-based, human", "conditions": "10 μM, 72 hrs", "protocol": "as §3"}, "[4]": {"test_system": "1445 mouse melanoma cells", "assay": "WST-1 cell proliferation assay", "type": "cell-based", "conditions": "0, 10 and 30 μM", "protocol": "as §3\nA panel of mouse and human melanoma cells was treated with 0, 10 and 30 μM PBIT and their proliferation rates were assessed using WST-1 assays."}}, "note": "pIC50: −log10 of the molar value. Where “and” joins values, the source holds several entries; their conditions need not be identical. Identical values can stand only once. Entries after “also recorded” stand apart in the source; their conditions may differ.", "data": [{"smiles": "Cc1ccc(-n2sc3ccccc3c2=O)cc1", "note": "[PBIT, 2-4(4-methylphenyl)-1,2-benzisothiazol-3(2H)-one]", "values": [{"measurement": "JARID1A demethylase activity", "setting": "JARID1A; compound 10 μM, 64 nM bio-H3K4me3 peptide", "result": "inhibited"}, {"measurement": "pIC50", "setting": "JARID1A; dose response, 50 μM Fe (II), read-out: IC50 against JARID1A", "result": "5.22 and ~5.22"}, {"measurement": "JMJD3 demethylase activity", "setting": "JMJD3", "result": "minimal effect; also recorded: did not inhibit"}, {"measurement": "JARID1B overexpression-induced decrease of H3K4me3", "setting": "[1]", "result": "prevented; also recorded: decrease was blocked"}, {"measurement": "H3K4me1 levels", "setting": "MCF7 cells [2]", "result": "did not change significantly"}, {"measurement": "H3K4me2 levels", "setting": "MCF7 cells [2]", "result": "did not change significantly"}, {"measurement": "H3K4me3 levels", "setting": "MCF7 cells [2]", "result": "increased; also recorded: dramatic increase"}, {"measurement": "cell proliferation (WST-1)", "setting": "MCF10A cells", "result": "minimal toxicity"}, {"measurement": "cell proliferation (WST-1)", "setting": "MCF7 cells [3]", "result": "did not inhibit growth; also recorded: minimal toxicity"}, {"measurement": "cell proliferation (WST-1)", "setting": "UACC-812 cells", "result": "killed most"}, {"measurement": "sensitivity of proliferation to treatment (WST-1)", "setting": "[4]", "result": "most sensitive"}]}]}
